US7109174B2, “Anticonvulsant derivatives useful for preventing the development of type II diabetes mellitus and syndrome X” (Ortho-McNeil Pharmaceutical, Inc., priority 2000, dated 2006)

What was measured:
[1] = test system: male Zucker diabetic fatty (ZDF/Gmi-Fa) rats; experiment: Plasma glucose, triglycerides and body weight change in male Zucker diabetic fatty rats, orally dosed for 14 days; type: in vivo; settings: for Body Weight Change / Plasma Glucose Levels Plasma Conc. / Plasma Triglyceride Levels Plasma Conc.: ± sem
Description: Six week old male Zucker diabetic fatty (ZDF/Gmi-Fa) rats were purchased from Genetic Models, Inc. Indianapolis, Ind. The rats were housed in groups of four in hanging metal cages, at an ambient temperature of 68–72° F., on a 12 hour-12 hour light-dark schedule and given access to water and food ad libitum. Lean rats (ZDF/GMI−+/+or +/fa) were used as normal, non-diabetic controls. The diet was comprised of LabDiet 5008 breeding formula (PMI Nutrition Int'l, Brentwood, Mo.). The vehicle, used as a reference and for test compounds, was 0.5% methylcellulose dissolved in water. The compounds were either fully dissolved or uniformly suspended in the vehicle when administered to the […]. The rats were randomly separated into four groups of eight. The groups were as follows: one vehicle control group and three groups that each received one of three doses of TPM (30, 100, or 300 mg/kg, respectively). Topiramate or vehicle was administered orally by gavage once a day, for 14 consecutive days, during the 8th hour of the light portion of the light-dark cycle. At the start of the study, the rats were bled through a tail vein and plasma glucose and triglyceride levels were determined. Between 18 and 24 hours after the last dose was administered, blood samples were again taken via tail clip on day 1 (fed animals) and day 14 (fed animals). The plasma was collected into 2 mL heparinized snap-top polypropylene tubes, then placed in ice. Plasma was separated from blood cells by centrifugation (20 minutes at 1800 g). For samples not assayed immediately, the plasma was transferred into 96-well plates and frozen at −70° C. Body weights for the animals were determined at the start of the study and again after 14 days oral dosing. Glucose and triglycerides were assayed using standard procedures for blood clinical laboratories. Specifically, the samples were analyzed using an automated Hitachi 717 autoanalyzer (Boehringer Mannheim/Hitachi 717 Autoanalyzer, Boehringer Mannheim Laboratory Systems Division, Indianapolis, Ind.). A statistical analysis of data for the drug-treated groups compared to data for the vehicle group was performed using the one-way analysis of variance (ANOVA) with Dunnett's Multiple Comparisons test. Following the procedure described above, the effect of topiramate on plasma glucose, triglyceride levels and body weight changes was determined for male Zucker rats, orally dosed for 14 days, with results as listed in Table 6–8. The abbreviation N represents the number of animals per study group.

[2] = test system: male mice (ob/ob); experiment: Old male ob/ob mice: topiramate in food for 110 days; body weight, HbA1C, glucose, triglycerides, insulin, skin lesions; type: in vivo; settings: for BG / BW / HbA1c / Insulin / Triglycerides: 110 days; for initial total incidence of skin lesions: when the study initiated (before dosing)
Description: Five- to seven-week old male mice (ob/ob) were purchased from The Jackson Laboratory (Bar Harbor, Me.). Upon arrival the mice were quarantined for five days and housed individually in wire mesh cages with 2-inch square “nestlets”. The mice were maintained at an ambient temperature of 21 to 23° C. on a 12 hour-12 hour light-dark schedule and given access to water and powdered chow ad libitum.
Topiramate was administered orally as a trace constituent in the food (0.143 to 2.54 mg/g). A precise quantity of topiramate was mixed thoroughly into a known amount of powdered lab chow using a mortar and pestle to grind the drug into the chow, after which the contents were placed in a 165 ounce lidded polyethylene tub and blended by shaking and rotating the tub. The lab chow (5002M Certified Diet Meal, manufactured in Brentwood, Mo. by Purina Mills, Inc.) was not less than 20% protein, 4.5% fat, and 64.5% CHO. The quantity of topiramate added to the food was based on the consumption of chow recorded during the previous three- or four-day period. The powdered food was put into stainless steel/aluminum feeders designed to prevent the mice from dispersing, spilling or contaminating the food. Mice that were able to disperse or soil the food were excluded from the study.
Thirty two-week old mice were randomly divided into three groups: (1) a control group in which no topiramate was added to the food, and (2) a group in which topiramate was added to the food in amounts sufficient to give a daily dose of 20 mg/kg for the entire 110-day dosing period, and (3) a group in which topiramate was added to the food in amounts sufficient to give a daily dose of 60 mg/kg for the entire dosing period.
The animals in each group were monitored for body weight, food consumption, blood glucose, HbA1C, insulin, triglycerides and physical signs of Type II diabetes mellitus or poor health. Body weight and food consumption were recorded twice-weekly on a Monday/Thursday or Tuesday/Friday schedule 8 to 12 hours into the light portion of the light-dark cycle. Body weight and food consumption were recorded using a scale designed for weights under 200 g. […] The mice were checked for skin lesions, and if present, the degree of severity was noted and recorded. If the general health of a mouse had deteriorated to a degree considered life threatening the mouse was euthanized.
Mice were allowed access to food containing topiramate until a few hours before being sacrificed by decapitation. Blood was collected from the neck wound into a parafilm-lined funnel. The blood was then transferred into beakers containing heparin. Plasma was separated from red blood cells by centrifugation. The plasma was frozen for subsequent analyses. Blood glucose levels, insulin and triglycerides were quantitated in the plasma. Glycated hemoglobin was also measured. The glycated hemoglobin required a 50 μl sample of whole blood, which was removed from the funnel before centrifugation. The plasma samples were then collected without freezing. All samples were packed in ice and shipped on the day blood was collected for overnight delivery to AniLytics, Inc. (200 Girard St., Suite 200, Gaithersburg, Md. 20877). The samples analyzed by AniLytics were assayed using standard procedures established by commercial laboratories that perform blood chemistry analyses. Statistical analysis was performed to determine if the data passed a test for normality (fit a Gaussian distribution). […] The data for a group of TPM-treated mice were compared to the control group.
Following the above described procedure, the effect of topiramate (TPM) on body weight (BW), glycated hemoglobin (HbA1C), blood glucose levels (BG), triglyceride and insulin levels in male ob/ob mice, were determined, with results as listed in Table 11. The abbreviation N represents the number of animals per group.

[3] = 30 mg/kg oral once a day, 14 days
[4] = 100 mg/kg oral once a day, 14 days
[5] = 100 mg/kg oral once a day, 14 days, P < 0.01
[6] = 300 mg/kg oral once a day, 14 days
[7] = 300 mg/kg oral once a day, 14 days, P < 0.01

In the case of `CC1(C)O[C@@H]2[C@@H](CO[C@@]3(COS(N)(=O)=O)OC(C)(C)O[C@@H]23)O1` [Topiramate, 2,3:4,5-bis-O-(1-methylethylidene)-β-D-fructopyranose sulfamate], the “Plasma Glucose % Change from Diabetic Control” value (from here on “Plasma Glucose % Change”) [1, 3] is reported as −24.9%, the “Plasma Glucose % of Diabetic Control” value [1, 3] is reported as 75.1% and the “Plasma Triglyceride % Change from Diabetic Control” value (“Plasma Triglyceride % Change” below) [1, 3] is reported as −20.4%. The “Plasma Triglyceride % of Diabetic Control” value [1, 3] was 79.6%, the “Body Weight Change” value [1, 3] was “+95.5 ± 7.2 Gms” and the “Plasma Glucose Levels Plasma Conc.” value ([1]; 30 mg/kg oral once a day, 14 days, P < 0.01) was 247.4 ± 17.8 mg/dL. The “Plasma Triglyceride Levels Plasma Conc.” value ([1]; 30 mg/kg oral once a day, 14 days, P < 0.05) was 482.4 ± 10.5 mg/dL, the “body weight change accompanying the reduction in blood glucose” value ([1]; 30 mg/kg/day) was “without significant body weight change” and the “decrease in plasma triglyceride levels” value ([1]; 30 mg/kg/day, P<0.05) was 20%. The “Plasma Glucose % Change” value [1, 4] was −47.5%, the “Plasma Glucose % of Diabetic Control” value [1, 4] was 52.5% and the “Plasma Triglyceride % Change” value [1, 4] was −17.7%. The “Plasma Triglyceride % of Diabetic Control” value [1, 4] was 82.3%, the “Plasma Triglyceride Levels Plasma Conc.” value [1, 4] was 498.6 ± 58.8 mg/dL and the “Body Weight Change” value [1, 5] was “+75.7 ± 2.7 (P < 0.01) Gms”. The “Plasma Glucose Levels Plasma Conc.” value [1, 5] was 170.3 ± 14.7 mg/dL, the “Plasma Glucose % Change” value [1, 6] was −49.5% and the “Plasma Glucose % of Diabetic Control” value [1, 6] was 50.5%. For the same compound, the “Plasma Triglyceride % Change” value [1, 6] was −30.2%, the “Plasma Triglyceride % of Diabetic Control” value [1, 6] was 69.8% and the “Body Weight Change” value [1, 7] was “+64.4 ± 6.0 (P < 0.01) Gms”. For the same compound, the “Plasma Glucose Levels Plasma Conc.” value [1, 7] was 166.4 ± 11.1 mg/dL, the “Plasma Triglyceride Levels Plasma Conc.” value [1, 7] was 423.0 ± 33.6 mg/dL and the “decrease in plasma triglyceride levels” value ([1]; 300 mg/kg/day, P<0.01) was 30%. For the same compound, the “decrease in blood glucose levels” value ([1]; 30 to 300 mg/kg, 14 days, P<0.01) was 25–50%, the BG ([2]; 20 mg/kg daily in food, n = 6) was 229.2 ± 46.0 mg/dL and the BW ([2]; 20 mg/kg daily in food, n = 6) was 65.6 ± 2.8 g. It also gave a HbA1c ([2]; 20 mg/kg daily in food, n = 6) of 4.98 ± 0.6%, an Insulin ([2]; 20 mg/kg daily in food, n = 6) of 12.2 ± 1.9 ng/mL and a Triglycerides ([2]; 20 mg/kg daily in food, n = 6) of 104 ± 6.4 mg/dL. The “initial total incidence of skin lesions” value ([2]; 20 mg/kg group) was 38%, the “mice died or had to be euthanized” value ([2]; 20 mg/kg, first 60 days of dosing) was “four” and the BW ([2]; 60 mg/kg daily in food, n = 7) was 67.5 ± 1.6 g. It also gave a HbA1c ([2]; 60 mg/kg daily in food, n = 7) of 3.56 ± 0.4%, an Insulin ([2]; 60 mg/kg daily in food, n = 7) of 11.4 ± 2.1 ng/mL and a Triglycerides ([2]; 60 mg/kg daily in food, n = 7) of 88 ± 3.2 mg/dL. For the same compound, the BG ([2]; 60 mg/kg daily in food, n = 7, P < 0.05) was 144.3 ± 20.0 mg/dL, the “initial total incidence of skin lesions” value ([2]; 60 mg/kg group) was 47% and the mice died ([2]; 60 mg/kg, first 60 days of dosing) was “Two”. For the same compound, the “total incidence of lesions versus control” value ([2]; 60 mg/kg/day, dosing period between 62 and 110 days) was “lower than in the control group”.
